Test results from US20120282377A1, “Methods and Formulations for Inhibiting Degradation of Photosensitive Sweeteners and Sweetener Enhancers” (priority 2011, published 2012).

Experiments:
[1] = Stability of monatin in lemon lime matrix under visible light (Example 2); format: physicochemical
Procedure: High-potency sweetener monatin was evaluated for stability to sunlight exposure when formulated into a beverage packaged in PET packaging (bottle) with and without a UV barrier or in a dark-colored PET packaging. This study was designed to evaluate the stability of RR stereoisomer of monatin under normal visible light and under ultraviolet light in the Atlas sun-test chamber using normal PET bottles, PET packaging with a UV barrier and dark PET packaging. For this purpose monatin solution was made in a lemon lime carbonated beverage matrix without any flavor added.
The RR isomer of monatin was used for the present study after satisfactory HPLC and LC-MS data analyses confirmed that this sample greater than 95% pure. A lemon lime beverage matrix without flavor was used as the matrix base. The concentration of monatin in the matrix was 30 ppm.
Due to lack of any RR-monatin standard, its stereoisomer, SS-monatin was used for HPLC calibration curve preparation as it appears at the same retention time as RR-monatin.
Quantitative analysis of monatin via UV detection in LC-MS was done for all the samples. The methodology employed a 12% acetonitrile (solvent A) in 50 mM ammonium formate (pH 4.0, solvent B) for 5 min followed by a linear gradient to 34% acetonitrile over 5 min; Detection: UV @278 nm].
1) regular PET bottles, 300 mL or 8 Oz (bottle type A). 2) PET bottles with a UV barrier, 600 mL or 16 Oz, fresh un-used bottle* (bottle type B). * It was shown that the UV barrier capacity decreased after one use in the commercially bought 20 Oz PET bottles with a UV barrier (See the UV scan data in FIG. 1). 3) dark-colored PET bottles (bottle type C). UV light source: Atlas Sun-test chamber. Under program 1 of sun-test chamber, 6 hr of exposure is equal to one day of sun-light exposure in Arizona or 400 Langley at 40° C. Control Experiment: UV irradiation by using only a lemon lime matrix (no monatin added) in regular PET bottles and running the sun-test chamber for four days equivalent exposure was carried out. The purpose of this experiment was to make sure no artifact arises from lemon lime matrix in the monatin absorption region. No new signals were identified. 13 bottles were used in the monatin-lemon-lime matrix experiments: 1 regular PET at zero time and 3 regular PET bottles; 2 PET bottles with a UV barrier bottles and 7 dark-colored PET bottles. Zero time sample protocol: 330 mL PET bottle was filled up to ⅓^rd full, flushed with nitrogen, covered with foil and then kept at 4° C. Sample aliquot protocol: 5 mL was taken out in a 20 mL opaque glass scintillation vial. Both vial and experimental bottle were flushed with nitrogen. The vial was covered with foil and kept at 4° C.
LC-MS analysis was carried out on all the samples in the same day as their maturation. A new monatin calibration curve was made every day with the SS-monatin sample.
For these experiments, visible light is the normal laboratory light which was left on all the time during the experiment.

[2] = cited from earlier work

degrades upon exposure to visible light ([1]; lemon-lime matrix, any of the three types of bottles, visible light for up to 74 hours): less than 10%
Conc. in mg/L RR-Monatin in Lemon Lime matrix UV barrier PET Bottle (600 mL) ([1]; visible light 0 hours): 31.1 mg/L
Conc. in mg/L RR-Monatin in Lemon Lime matrix in Normal PET Bottle (330 mL) ([1]; visible light 0 hours): 31.1 mg/L
Conc. in mg/L RR-Monatin in Lemon Lime matrix in dark-colored PET Bottle (75 mL) ([1]; visible light 0 hours): 31.1 mg/L
Conc. in mg/L RR-Monatin in Lemon Lime matrix UV barrier PET Bottle (600 mL) ([1]; visible light 5 hours): 30.9 mg/L
Conc. in mg/L RR-Monatin in Lemon Lime matrix in Normal PET Bottle (330 mL) ([1]; visible light 5 hours): 31.0 mg/L
Conc. in mg/L RR-Monatin in Lemon Lime matrix in dark-colored PET Bottle (75 mL) ([1]; visible light 5 hours): 30.9 mg/L
Conc. in mg/L RR-Monatin in Lemon Lime matrix UV barrier PET Bottle (600 mL) ([1]; visible light 8 hours): 30.4 mg/L
Conc. in mg/L RR-Monatin in Lemon Lime matrix in Normal PET Bottle (330 mL) ([1]; visible light 8 hours): 30.4 mg/L
Conc. in mg/L RR-Monatin in Lemon Lime matrix in dark-colored PET Bottle (75 mL) ([1]; visible light 8 hours): 30.4 mg/L
Conc. in mg/L RR-Monatin in Lemon Lime matrix UV barrier PET Bottle (600 mL) ([1]; visible light 26 hours): 29.8 mg/L
Conc. in mg/L RR-Monatin in Lemon Lime matrix in Normal PET Bottle (330 mL) ([1]; visible light 26 hours): 29.7 mg/L
Conc. in mg/L RR-Monatin in Lemon Lime matrix in dark-colored PET Bottle (75 mL) ([1]; visible light 26 hours): 29.9 mg/L
Conc. in mg/L RR-Monatin in Lemon Lime matrix UV barrier PET Bottle (600 mL) ([1]; visible light 31 hours): 29.5 mg/L
Conc. in mg/L RR-Monatin in Lemon Lime matrix in Normal PET Bottle (330 mL) ([1]; visible light 31 hours): 29.7 mg/L
Conc. in mg/L RR-Monatin in Lemon Lime matrix in dark-colored PET Bottle (75 mL) ([1]; visible light 31 hours): 29.7 mg/L
Conc. in mg/L RR-Monatin in Lemon Lime matrix UV barrier PET Bottle (600 mL) ([1]; visible light 49 hours): 28.9 mg/L
Conc. in mg/L RR-Monatin in Lemon Lime matrix in Normal PET Bottle (330 mL) ([1]; visible light 49 hours): 29.2 mg/L
Conc. in mg/L RR-Monatin in Lemon Lime matrix in dark-colored PET Bottle (75 mL) ([1]; visible light 49 hours): 29.3 mg/L
Conc. in mg/L RR-Monatin in Lemon Lime matrix UV barrier PET Bottle (600 mL) ([1]; visible light 56 hours): 29.2 mg/L
Conc. in mg/L RR-Monatin in Lemon Lime matrix in Normal PET Bottle (330 mL) ([1]; visible light 56 hours): 29.1 mg/L
Conc. in mg/L RR-Monatin in Lemon Lime matrix in dark-colored PET Bottle (75 mL) ([1]; visible light 56 hours): 29.2 mg/L
Conc. in mg/L RR-Monatin in Lemon Lime matrix UV barrier PET Bottle (600 mL) ([1]; visible light 74 hours): 28.7 mg/L
Conc. in mg/L RR-Monatin in Lemon Lime matrix in Normal PET Bottle (330 mL) ([1]; visible light 74 hours): 28.8 mg/L
Conc. in mg/L RR-Monatin in Lemon Lime matrix in dark-colored PET Bottle (75 mL) ([1]; visible light 74 hours): 28.9 mg/L
SMILES: NC(CC(O)(Cc1c[nH]c2ccccc12)C(=O)O)C(=O)O (centres unmarked) [Monatin, 2-amino-4-carboxy-4-hydroxy-5-(3-indolyl)-pentanoic acid]
degradation when exposed to UV light [2]: degrade to malodorous degradation products
